Among the data in ChEMBL document CHEMBL3352139, “Unambiguous Determination of the Absolute Configuration of Dimeric Stilbene Glucosides from the Rhizomes of Gnetum africanum” (J Nat Prod, 2014) are inhibition values, retold here.

Chain of Amyloid-beta precursor protein (Homo sapiens) (P05067 whole entry): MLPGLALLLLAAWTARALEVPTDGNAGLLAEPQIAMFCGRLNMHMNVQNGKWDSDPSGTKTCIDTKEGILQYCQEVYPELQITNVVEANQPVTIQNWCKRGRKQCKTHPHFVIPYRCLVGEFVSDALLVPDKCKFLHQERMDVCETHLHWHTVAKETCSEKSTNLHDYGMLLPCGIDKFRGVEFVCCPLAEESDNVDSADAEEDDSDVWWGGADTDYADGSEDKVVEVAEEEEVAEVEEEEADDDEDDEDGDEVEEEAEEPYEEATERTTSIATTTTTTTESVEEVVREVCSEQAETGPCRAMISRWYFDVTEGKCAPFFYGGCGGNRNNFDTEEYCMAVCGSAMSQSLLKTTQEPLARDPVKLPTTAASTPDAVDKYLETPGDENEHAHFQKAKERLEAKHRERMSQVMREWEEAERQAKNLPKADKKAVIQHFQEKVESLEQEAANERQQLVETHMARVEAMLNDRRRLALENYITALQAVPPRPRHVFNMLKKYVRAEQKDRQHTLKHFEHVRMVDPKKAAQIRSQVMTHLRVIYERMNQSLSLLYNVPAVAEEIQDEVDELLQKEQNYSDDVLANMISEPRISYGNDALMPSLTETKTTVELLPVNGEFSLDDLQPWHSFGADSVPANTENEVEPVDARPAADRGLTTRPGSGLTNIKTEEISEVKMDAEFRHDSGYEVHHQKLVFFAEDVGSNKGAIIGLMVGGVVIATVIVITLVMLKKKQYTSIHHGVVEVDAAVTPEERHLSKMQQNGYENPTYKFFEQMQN

This experiment addresses Amyloid-beta precursor protein (Homo sapiens) (UniProt P05067). Nature of the experiment: Inhibition of Amyloid beta (25 to 35) (unknown origin) polymerization assessed as reduction in beta-amyloid fibril formation at 10 uM after 6 hrs by UV-visible spectroscopy.
As usually defined, the inhibition is the change of the read-out against control, counted positive when it falls. `OC[C@H]1O[C@@H](Oc2ccc(/C=C/c3cc(O)c4c(c3)O[C@H](c3ccc(O[C@@H]5O[C@H](CO)[C@@H](O)[C@H](O)[C@H]5O)cc3)[C@H]4c3cc(O)cc(O)c3)cc2)[C@H](O)[C@@H](O)[C@@H]1O`: the inhibition is 56%.

As for `OC[C@H]1O[C@@H](Oc2ccc(/C=C/c3cc(O)c4c(c3)O[C@@H](c3ccc(O[C@@H]5O[C@H](CO)[C@@H](O)[C@H](O)[C@H]5O)cc3)[C@@H]4c3cc(O)cc(O)c3)cc2)[C@H](O)[C@@H](O)[C@@H]1O`, the inhibition turned out to be 56%.

Take `OC[C@H]1O[C@@H](Oc2ccc([C@H]3Oc4cc(/C=C/c5ccc(O)cc5)cc(O)c4[C@@H]3c3cc(O)cc(O)c3)cc2)[C@H](O)[C@@H](O)[C@@H]1O`: the inhibition was 58%.

Turning to `OC[C@H]1O[C@@H](Oc2ccc(/C=C/c3cc(O)c4c(c3)O[C@H](c3ccc(O)cc3)[C@H]4c3cc(O)cc(O)c3)cc2)[C@H](O)[C@@H](O)[C@@H]1O`, the inhibition was 54%.
